Measured values reported in patent US10766912B2 (priority 2017, dated 2020).
Read-outs that look alike come from different tables or passages of the source.

Columns and labels:
Format in all cases: cell-based
[1] = system: HCV GT1a wild-type replicon; assay: Assay Example 1: activity against HCV GT1a wild-type replicon; settings: Hepatitis C virus, 72 h, Huh 7 cells, 3 days, luciferase
Procedure: (§1) Cells: Huh 7 cell line and HCV GT1b/3a and GT1b/6a NS5A chimeric replicons and GT1b and GT1a wild-type replicon RNA.
(§2) Treatment of Compound: According to the assay final concentrations of the compounds in Table 2, DMSO stock solutions of the compounds were diluted and then added to a 96-well assay plate. The final concentration of DMSO was 0.5%.
(§3) The preparation of cells: After replicon plasmid DNA was linearized with a corresponding restriction enzyme, the DNA was transcribed into RNA by using T7RNA polymerase. Replicon RNA prepared by transcription in vitro was transfected into Huh-7 cells by electroporation. Transfected cells were seeded at a density of 10,000 cells per well into the 96-well assay plate containing the diluted compounds, and then the plate was placed in a 37° C. incubator with 5% CO2 and cultured for 3 days.
(§4) Drug activity assay: Luminescence signal value (RLU) was detected with Envision within 15 minutes using the luciferase assay reagent Britelite plus, and the original data (RLU) was used for the calculation of the activity of the compounds.
(§5) The activity of the compounds was calculated by using the equation below: Inhibition %=(ZPE−CPD)/(ZPE−HPE)×100%*
(§6) The cell viability percentages (Viability %) and the inhibition percentages (Inhibition %) were imported into GraphPad Prism software, respectively, and curves were fitted by using nonlinear regression method to obtain the corresponding curves of the compounds, and the cytotoxicity (CC50) thereof and inhibitory activity (EC50) values against the HCV replicon thereof.

[2] = system: HCV GT1b/6a NS5A chimeric replicon; assay: Assay Example 1: activity against HCV GT1b/6a NS5A chimeric replicon; settings: Hepatitis C virus, Huh-7, 72 h, read-out: EC50 value GT1b/6a NS5A chimeric replicon
Procedure: as §1, §2, §3, §4, §5, §6

[3] = system: HCV GT1b/3a NS5A chimeric replicon; assay: Assay Example 1: activity against HCV GT1b/3a NS5A chimeric replicon; settings: Hepatitis C virus, Huh-7, 72 h, read-out: EC50 value GT1b/3a NS5A chimeric replicon
Procedure: as §1, §2, §3, §4, §5, §6

in vitro = settings: human; Huh 7 cells with GT1b wild-type replicon, 3 days, CellTiter-Fluor
Procedure: as §1, §2, §3
(§7) Cell viability assay: A cell growth fluorescent titration detection reagent CellTiter-Fluor was added to the 96-well plate of the GT1b wild-type replicon. After the cells were cultured for 1 hour in a 37° C. incubator with 5% CO2, the fluorescence signal value (RFU) was detected by Envision, and the original data (RFU) was used for the calculation of the cytotoxicity of the compounds.
The cytotoxicity of the compounds was calculated by using the equation below: Cell Viability %=(CPD−HPE)/(ZPE−HPE)×100%*
as §6

[4] = system: HCV GT1b wild-type replicon; assay: Assay Example 1: activity against HCV GT1b wild-type replicon (luciferase, transient transfection); settings: Hepatitis C virus, 72 h, Huh 7 cells, 3 days
Procedure: as §1, §2, §3, §4, §5, §6

[5] = system: HCV GT1b/3a NS5A chimeric replicon; assay: Assay Example 2: activity against GT1b/3a NS5A chimeric replicon; settings: Hepatitis C virus, Huh-7, 72 h, read-out: EC50 Value GT1b/3a-NS5A-wt
Procedure: (§8) Cells: Huh-7 cells are liver cancer cell strains (from AppTec, USA), HCV GT1a and GT1b wild type (wt) replicons, GT1b/3a, GT1b/4a, GT1b/5a and GT1b/6a NS5A chimeric replicons.
(§9) Treatment of Compound: According to the assay final concentrations of the compounds in Table 5, DMSO stock solutions of the compounds were diluted and then added to a 96-well assay plate. The final concentration of DMSO was 0.5%.
as §3, with “T7 RNA” for “T7RNA”, “then” for “then the plate was”
as §4
(§10) The cytotoxicity of the compounds was calculated by using the equation below: Cell Viability %=(CPD−HPE)/(ZPE−HPE)×100%* The activity of the compounds was calculated by using the equation below: Inhibition %=(ZPE−CPD)/(ZPE−HPE)×100%*
as §6, with “thereof and the inhibitory activity” for “thereof and inhibitory activity”

[6] = Assay Example 2: cell viability assay (CellTiter-Fluor), GT1b wild-type replicon plate; settings: human, Huh-7 cells with GT1b wild-type replicon, read-out: CC50 Value GT1b-wt
Procedure: as §8, §9
as §3, with “T7 RNA” for “T7RNA”, “then” for “then the plate was”
as §7, §10
as §6, with “thereof and the inhibitory activity” for “thereof and inhibitory activity”

[7] = system: HCV GT1b wild type (wt) replicon; assay: Assay Example 2: activity against HCV GT1b wild-type replicon; settings: Hepatitis C virus, read-out: EC50 Value GT1b-wt
Procedure: as §8, §9
as §3, with “T7 RNA” for “T7RNA”, “then” for “then the plate was”
as §4, §10
as §6, with “thereof and the inhibitory activity” for “thereof and inhibitory activity”

[8] = system: HCV GT1b/6a NS5A chimeric replicon; assay: Assay Example 2: activity against GT1b/6a NS5A chimeric replicon; settings: Hepatitis C virus, Huh-7, 72 h, read-out: EC50 Value GT1b/6a-NS5A-wt
Procedure: as §8, §9
as §3, with “T7 RNA” for “T7RNA”, “then” for “then the plate was”
as §4, §10
as §6, with “thereof and the inhibitory activity” for “thereof and inhibitory activity”

[9] = Huh-7 cells transfected with HCV GT1b wild-type replicon RNA
[10] = 72 h, Huh-7 cells, transient transfection, 3 days

SMILES	EC50 [1] [nM]	EC50 [2] [nM]	EC50 [3] [nM]	CC50 (in vitro) [nM]	EC50 [4] [nM]	EC50 [5] [nM]	CC50 at 3 days [6, 9] [nM]	EC50 [7, 10] [nM]	EC50 [8] [nM]	CC50 at 3 days [6] [nM]	EC50 ([7]; Huh-7, 72 h) [nM]
COC(=O)N[C@H](C(=O)N1CCC[C@H]1c1nc2cc([C@@H]3CC[C@@H](c4ccc5[nH]c([C@@H]6CCCN6C(=O)[C@@H](NC(=O)OC)[C@@H](C)OC)nc5c4)N3c3cc(F)c(N4CC[Si](C)(C)CC4)c(F)c3)ccc2[nH]1)[C@@H](C)OC [Compound 4a]	0.0054	0.026	0.0039	> 0.1	0.011	–	–	–	–	–	–
COC(=O)N[C@H](C(=O)N1CCC[C@H]1c1nc2cc([C@@H]3CC[C@@H](c4ccc5[nH]c([C@@H]6CCCN6C(=O)[C@@H](NC(=O)OC)[C@@H](C)OC)nc5c4)N3c3ccc(N4CC[Si](C)(C)CC4)c(F)c3)ccc2[nH]1)[C@@H](C)OC [Compound 5a]	0.017	0.174	0.013	> 0.1	0.019	–	–	–	–	–	–
COC(=O)N[C@H](C(=O)N1CCC[C@H]1C(=O)Nc1ccc([C@@H]2CC[C@@H](c3ccc(NC(=O)[C@@H]4CCCN4C(=O)[C@@H](NC(=O)OC)[C@@H](C)OC)cc3)N2c2ccc(N3CC[Si](C)(C)CC3)c(F)c2)cc1)[C@@H](C)OC [Compound 2a, Methyl ((2S, 2′S, 3R, 3′R)-((2S, 2′S)-(((((2S, 5S)-1-(4-(4,4-dimethylazasilinan-1-yl)-3-fluorophenyl)pyrrolidin-2,5-diyl)bis(4,1-phenylene))bis(azanediyl))bis(carbonyl))bis(pyrrolidin-2,1-diyl))bis(3-methoxy-1-oxobutan-1,2-diyl))dicarbamate]	0.012	0.242	0.006	> 0.1	0.0029	–	–	–	–	–	–
COC(=O)N[C@H](C(=O)N1CCCC1c1nc2cc([C@H]3CC[C@H](c4ccc(-c5cnc([C@@H]6CCCN6C(=O)[C@@H](NC(=O)OC)[C@@H](C)OC)[nH]5)cc4)N3c3cc(F)c(N4CC[Si](C)(C)CC4)c(F)c3)ccc2[nH]1)[C@@H](C)OC (stereo partly shown) [Compound 15b]	–	–	–	–	–	0.00728	> 0.2	0.00295	–	–	–
COC(=O)N[C@H](C(=O)N1CCC[C@H]1C(=O)Nc1ccc([C@H]2CC[C@H](c3ccc(NC(=O)[C@@H]4CCCN4C(=O)[C@@H](NC(=O)OC)[C@@H](C)OC)cc3)N2c2ccc(N3CC[Si](C)(C)CC3)c(F)c2)cc1)[C@@H](C)OC [Compound 2b, Methyl ((2S, 2′S, 3R, 3′R)-((2S, 2′S)-(((((2R, 5R)-1-(4-(4,4-dimethylazasilinan-1-yl)-3-fluorophenyl)pyrrolidin-2,5-diyl)bis(4,1-phenylene))bis(azanediyl))bis(carbonyl))bis(pyrrolidin-2,1-diyl))bis(3-methoxy-1-oxobutan-1,2-diyl))dicarbamate]	0.065	0.454	0.014	> 0.1	0.016	–	–	–	–	–	–
COC(=O)N[C@H](C(=O)N1CCCC1C(=O)Nc1ccc([C@H]2CC[C@H](c3ccc(-c4cnc([C@@H]5CCCN5C(=O)[C@@H](NC(=O)OC)[C@@H](C)OC)[nH]4)cc3)N2c2cc(F)c(N3CC[Si](C)(C)CC3)c(F)c2)cc1)[C@@H](C)OC (stereo partly drawn) [Compound 8b, Methyl ((2S,3R)-1-((S)-2-((4-((2R,5R)-1-(4-(4,4-dimethylazasilinan-1-yl)-3,5-difluorophenyl-5-(4-(2-((S)-1-(N-methoxycarbonyl)-O-methyl-L-threonyl)pyrrolidin-2-yl)-1H-imidazazol-5-yl)phenyl)pyrrolidin-2-yl)phenyl)carbamoyl)pyrrolidin-1-yl)-3-methoxy-1-oxobutan-2-yl)carbamate]	–	–	–	–	–	0.0679	> 0.2	0.00159	0.00673	–	–
COC(=O)N[C@H](C(=O)N1CCC[C@H]1C(=O)Nc1ccc([C@@H]2CC[C@@H](c3ccc4nc([C@@H]5CCCN5C(=O)[C@@H](NC(=O)OC)[C@@H](C)OC)[nH]c4c3)N2c2cc(F)c(N3CC[Si](C)(C)CC3)c(F)c2)cc1)[C@@H](C)OC [Compound 6a, Methyl ((2S,3R)-1-((S)-2-(6-((2S,5S)-1-(4-(4,4-dimethylazasilinan-1-yl)-3,5-difluorophenyl)-5-(4-((S)-1-(N-(methoxycarbonyl)-O-methyl-L-threonyl)pyrrolidin-2-formylamino)phenyl)pyrrolidin-2-yl)-1H-benzo[d]imidazol-2-yl)pyrrolidin-1-yl)-3-methoxy-1-oxobutan-2-yl)carbamate]	0.014	0.23	0.0052	> 0.1	0.0057	–	–	–	–	–	–
COC(=O)N[C@H](C(=O)N1CCC[C@H]1c1nc2cc([C@H]3CC[C@H](c4ccc5[nH]c([C@@H]6CCCN6C(=O)[C@@H](NC(=O)OC)[C@@H](C)OC)nc5c4)N3c3cc(F)c(N4CC[Si](C)(C)CC4)c(F)c3)ccc2[nH]1)[C@@H](C)OC [Compound 4b]	0.0041	0.005	0.0015	> 0.1	0.0059	–	–	–	–	–	–
COC(=O)N[C@H](C(=O)N1CCCC1C(=O)Nc1ccc([C@@H]2CC[C@@H](c3ccc(-c4cnc([C@@H]5CCCN5C(=O)[C@@H](NC(=O)OC)[C@@H](C)OC)[nH]4)cc3)N2c2cc(F)c(N3CC[Si](C)(C)CC3)c(F)c2)cc1)[C@@H](C)OC (stereo partly shown) [Compound 8a]	–	–	–	–	–	0.0797	> 0.2	0.00208	0.00905	–	–
COC(=O)N[C@H](C(=O)N1CCC[C@H]1C(=O)Nc1ccc([C@@H]2CC[C@@H](c3ccc(NC(=O)[C@@H]4CCCN4C(=O)[C@@H](NC(=O)OC)[C@@H](C)OC)cc3)N2c2cc(F)c(N3CC[Si]4(CCCC4)CC3)c(F)c2)cc1)[C@@H](C)OC [Compound 3a]	–	–	–	–	–	0.00635	–	–	0.0045	> 0.2	0.00133
COC(=O)N[C@H](C(=O)N1CCC[C@H]1c1nc2cc([C@H]3CC[C@H](c4ccc5[nH]c([C@@H]6CCCN6C(=O)[C@@H](NC(=O)OC)[C@@H](C)OC)nc5c4)N3c3ccc(N4CC[Si](C)(C)CC4)c(F)c3)ccc2[nH]1)[C@@H](C)OC [Compound 5b]	0.013	0.016	0.0063	> 0.1	0.017	–	–	–	–	–	–
COC(=O)N[C@H](C(=O)N1CCC[C@H]1C(=O)Nc1ccc([C@H]2CC[C@H](c3ccc(NC(=O)[C@@H]4CCCN4C(=O)[C@@H](NC(=O)OC)[C@@H](C)OC)cc3)N2c2cc(F)c(N3CC[Si](C)(C)CC3)c(F)c2)cc1)[C@@H](C)OC [Compound 1b, Methyl ((2S,2′S,3R,3′R)-((2S,2′S)-(((((2R,5R)-1-(4-(4,4-dimethylazasilinan-1-yl)-3,5-difluorophenyl)pyrrolidin-2,5-diyl)bis(4,1-phenylene))bis(azanediyl))bis(carbonyl))bis(pyrrolidin-2,1-diyl))bis (3-methoxy-1-oxobutan-1,2-diyl))dicarbamate]	0.012	0.114	0.0048	> 0.1	0.0017	–	–	–	–	–	–
